Laboratory results from patent US10294202B2, “Pyrrolidinones as herbicides” (FMC Corporation, priority 2013, dated 2019).

Experiments:
[1] = system: barnyardgrass; experiment: Test A pre-/postemergence herbicide test; type: in vivo, Echinochloa crus-galli
In short: (§1)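 Approximately 10 days after treatment in the greenhouse, plants were compared with untreated controls and given a 0–100 visual injury rating. Applications: preemergence directed soil spray; postemergence on 2–10 cm plants at the one- to two-leaf stage.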

[2] = system: giant foxtail; experiment: Test A pre-/postemergence herbicide test; type: in vivo, Setaria faberii
In short: as §1

[3] = system: pigweed; experiment: Test A pre-/postemergence herbicide test; type: in vivo, Amaranthus retroflexus
In short: as §1

[4] = system: galium; experiment: Test C pre-/postemergence herbicide test; type: in vivo, Galium aparine; details: Preemergence; for Plant response rating, Galium: 125 g ai/ha; for Plant response rating (scale of 0 to 100), Galium: 250 g ai/ha
In short: (§2)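 Plants grown and held in a greenhouse for 13 to 15 days post-spray, then rated 0–100 by visual comparison with controls. Pre treatments targeted seeds in loam and sand; post treatments targeted 1- to 4-leaf plants in peat-based potting medium.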

[5] = system: crabgrass, large; experiment: Test C pre-/postemergence herbicide test; type: in vivo, Digitaria sanguinalis; details: Preemergence; for Plant response rating, Crabgrass, Large: 125 g ai/ha; for Plant response rating (scale of 0 to 100), Crabgrass, Large: 250 g ai/ha
In short: as §2

[6] = system: foxtail, giant; experiment: Test C pre-/postemergence herbicide test; type: in vivo, Setaria faberii; details: Preemergence; for Plant response rating, Foxtail, Giant: 125 g ai/ha; for Plant response rating (scale of 0 to 100), Foxtail, Giant: 250 g ai/ha
In short: as §2

[7] = system: lambsquarters; experiment: Test C pre-/postemergence herbicide test; type: in vivo, Chenopodium album; details: Preemergence; for Plant response rating, Lambsquarters: 125 g ai/ha; for Plant response rating (scale of 0 to 100), Lambsquarters: 250 g ai/ha
In short: as §2

[8] = system: morningglory; experiment: Test C pre-/postemergence herbicide test; type: in vivo, Ipomoea coccinea; details: Preemergence; for Plant response rating, Morningglory: 125 g ai/ha; for Plant response rating (scale of 0 to 100), Morningglory: 250 g ai/ha
In short: as §2

[9] = system: barnyardgrass; experiment: Test C pre-/postemergence herbicide test; type: in vivo, Echinochloa crus-galli; details: Preemergence; for Plant response rating (scale of 0 to 100; 0 is no effect, 100 is complete control), Barnyardgrass: 250 g ai/ha
Text: (§3) Seeds of plant species selected from blackgrass (Alopecurus myosuroides), ryegrass, Italian (Italian ryegrass, Lolium multiflorum), wheat (winter wheat, Triticum aestivum), galium (catchweed bedstraw, Galium aparine), corn (Zea mays), crabgrass, large (large crabgrass, Digitaria sanguinalis), foxtail, giant (giant foxtail, Setaria faberii), johnsongrass (Sorghum halepense), lambsquarters (Chenopodium album), morningglory (Ipomoea coccinea), nutsedge, yellow (yellow nutsedge, Cyperus esculentus), pigweed (Amaranthus retroflexus), ragweed (common ragweed, Ambrosia elatior), soybean (Glycine max), barnyardgrass (Echinochloa crus-galli), oilseed rape (Brassica napus), waterhemp (common waterhemp, Amaranthus rudis), kochia (Kochia scoparia), oat, wild (wild oat, Avena fatua), surinam grass (Brachiaria decumbens), foxtail, green (green foxtail, Setaria viridis), goosegrass (Eleusine indica), bromegrass, downy (downy bromegrass, Bromus tectorum), nightshade (eastern black nightshade, Solanum ptycanthum), cocklebur (common cocklebur, Xanthium strumarium), cupgrass, woolly (woolly cupgrass, Eriochloa villosa), bermudagrass (Cynodon dactylon), sunflower, (common oilseed sunflower, Helianthus annuus), Russian thistle (Salsola kali) and velvetleaf (Abutilon theophrasti) were planted into a blend of loam soil and sand and treated preemergence with test chemicals formulated in a non-phytotoxic solvent mixture which included a surfactant. At the same time, plants selected from these crop and weed species and also barley (winter barley, Hordeum vulgare), […]), chickweed (common chickweed, Stellaria media), deadnettle (henbit deadnettle, Lamium amplexicaule), and canarygrass (littleseed canarygrass, Phalaris minor) were planted in pots containing Redi-Earth® planting medium (Scotts Company, 14111 Scottslawn Road, Marysville, Ohio 43041) comprising spaghnum peat moss, vermiculite, wetting agent and starter nutrients and treated with postemergence applications of test chemicals formulated in the same manner. Plants ranged in height from 2 to 18 cm (1- to 4-leaf stage) for postemergence treatments. Treated plants and controls were maintained in a greenhouse for 13 to 15 days, after which time all species were compared to controls and visually evaluated. Plant response ratings, summarized in Table C, are based on a scale of 0 to 100 where 0 is no effect and 100 is complete control. A dash (-) response means no test result.

[10] = system: waterhemp; experiment: Test C pre-/postemergence herbicide test; type: in vivo, Amaranthus rudis; details: Preemergence; for Plant response rating, Waterhemp: 125 g ai/ha; for Plant response rating (scale of 0 to 100), Waterhemp: 250 g ai/ha
Text: as §3

[11] = system: velvetleaf; experiment: Test C pre-/postemergence herbicide test; type: in vivo, Abutilon theophrasti; details: Preemergence; for Plant response rating, Velvetleaf: 125 g ai/ha; for Plant response rating (scale of 0 to 100), Velvetleaf: 250 g ai/ha
In short: as §2

[12] = 125 g ai/ha, visual rating, 0 to 100 scale, 0 no effect, 100 complete control, approximately 10 days, preemergence
[13] = Postemergence, 125 g ai/ha, 0 to 100 scale, 0 is no effect, 100 is complete control
[14] = preemergence, 500 g ai/ha, 0 to 100 scale, 0 is no effect and 100 is complete control
[15] = 31 g ai/ha, scale 0 to 100, 0 is no effect and 100 is complete control
[16] = 62 g ai/ha, scale 0 to 100 (0 no effect, 100 complete control)
[17] = scale 0 to 100 (0 no effect, 100 complete control)
[18] = 125 g ai/ha, scale 0 to 100 (0 no effect, 100 complete control)
[19] = Postemergence, 125 g ai/ha, visual rating on 0 to 100 scale (0 no effect, 100 complete control), approx. 10 days
[20] = Postemergence, 500 g ai/ha, 0 to 100 scale (0 no effect, 100 complete control)
[21] = Preemergence, 125 g ai/ha, 0 to 100 scale where 0 is no effect and 100 is complete control
[22] = Preemergence, 500 g ai/ha, visual rating on 0 to 100 scale (0 no effect, 100 complete control)

O=C1NCC(c2ccc(C(F)(F)F)cc2)C1C(=O)Nc1ccccc1Cl (centres unmarked) [Compound 233]
Plant response rating, Barnyardgrass [1, 12]: 80 | Plant response rating, Barnyardgrass [1, 13]: 70 | Barnyardgrass plant response rating (0 to 100 scale, 0 is no effect, 100 is complete control) ([1]; Postemergence, 500 g ai/ha): 90 | Plant response rating, Barnyardgrass [1, 14]: 90 | Plant response rating, Foxtail, Giant [2, 12]: 90 | Plant response rating, Foxtail, Giant [2, 13]: 90 | Foxtail, Giant plant response rating (0 to 100 scale, 0 is no effect, 100 is complete control) ([2]; Postemergence, 500 g ai/ha): 90 | Plant response rating, Foxtail, Giant [2, 14]: 90 | Plant response rating, Pigweed [3, 12]: 30 | Plant response rating, Pigweed [3, 13]: 0 | Pigweed plant response rating (0 to 100 scale, 0 is no effect, 100 is complete control) ([3]; Postemergence, 500 g ai/ha): 20 | Plant response rating, Pigweed [3, 14]: 30 | Galium plant response rating [4, 15]: 0 | Galium plant response rating [4, 16]: 80 | Plant response rating, Galium [4, 17]: 90 | Plant response rating (scale of 0 to 100), Galium [4]: 90 | Crabgrass, Large plant response rating [5, 15]: 90 | Crabgrass, Large plant response rating [5, 16]: 90 | Plant response rating, Crabgrass, Large [5, 17]: 90 | Plant response rating (scale of 0 to 100), Crabgrass, Large [5]: 90 | Foxtail, Giant plant response rating [6, 15]: 85 | Foxtail, Giant plant response rating [6, 16]: 90 | Plant response rating, Foxtail, Giant [6, 17]: 90 | Plant response rating (scale of 0 to 100), Foxtail, Giant [6]: 95 | Lambsquarters plant response rating [7, 15]: 85 | Lambsquarters plant response rating [7, 16]: 85 | Plant response rating, Lambsquarters [7, 17]: 95 | Plant response rating (scale of 0 to 100), Lambsquarters [7]: 90 | Morningglory plant response rating [8, 15]: 0 | Morningglory plant response rating [8, 16]: 0 | Plant response rating, Morningglory [8, 17]: 20 | Plant response rating (scale of 0 to 100), Morningglory [8]: 20 | Barnyardgrass plant response rating [9, 15]: 80 | Plant response rating, Barnyardgrass ([9]; 62 g ai/ha, scale 0 to 100): 75 | Plant response rating, Barnyardgrass [9, 18]: 85 | Plant response rating (scale of 0 to 100; 0 is no effect, 100 is complete control), Barnyardgrass [9]: 90 | Waterhemp plant response rating [10, 15]: 95 | Waterhemp plant response rating [10, 16]: 80 | Plant response rating, Waterhemp [10, 17]: 85 | Plant response rating (scale of 0 to 100), Waterhemp [10]: 95 | Velvetleaf plant response rating [11, 15]: 15 | Velvetleaf plant response rating [11, 16]: 25 | Plant response rating, Velvetleaf [11, 17]: 45 | Plant response rating (scale of 0 to 100), Velvetleaf [11]: 45

O=C1NCC(c2cccc(Br)c2)C1C(=O)Nc1ccccc1F (centres unmarked) [Compound 307]
Plant response rating, Barnyardgrass [1, 19]: 70 | Plant response rating, Barnyardgrass [1, 20]: 90 | Plant response rating, Barnyardgrass [1, 21]: 80 | Barnyardgrass plant response rating [1, 22]: 90 | Plant response rating, Foxtail, Giant [2, 19]: 70 | Plant response rating, Foxtail, Giant [2, 20]: 80 | Plant response rating, Foxtail, Giant [2, 21]: 80 | Foxtail, Giant plant response rating [2, 22]: 90 | Plant response rating, Pigweed [3, 19]: 0 | Plant response rating, Pigweed [3, 20]: 0 | Plant response rating, Pigweed [3, 21]: 0 | Pigweed plant response rating [3, 22]: 0 | Galium plant response rating [4, 15]: 0 | Galium plant response rating [4, 16]: 0 | Plant response rating, Galium ([4]; scale 0 to 100): 100 | Plant response rating (scale of 0 to 100), Galium [4]: 85 | Crabgrass, Large plant response rating [5, 15]: 90 | Crabgrass, Large plant response rating [5, 16]: 95 | Plant response rating, Crabgrass, Large ([5]; scale 0 to 100): 95 | Plant response rating (scale of 0 to 100), Crabgrass, Large [5]: 100 | Foxtail, Giant plant response rating [6, 15]: 65 | Foxtail, Giant plant response rating [6, 16]: 85 | Plant response rating, Foxtail, Giant ([6]; scale 0 to 100): 85 | Plant response rating (scale of 0 to 100), Foxtail, Giant [6]: 95 | Lambsquarters plant response rating [7, 15]: 0 | Lambsquarters plant response rating [7, 16]: 0 | Plant response rating, Lambsquarters ([7]; scale 0 to 100): 10 | Plant response rating (scale of 0 to 100), Lambsquarters [7]: 85 | Morningglory plant response rating [8, 15]: 0 | Morningglory plant response rating [8, 16]: 0 | Plant response rating, Morningglory ([8]; scale 0 to 100): 0 | Plant response rating (scale of 0 to 100), Morningglory [8]: 0 | Barnyardgrass plant response rating [9, 15]: 40 | Barnyardgrass plant response rating [9, 16]: 70 | Plant response rating, Barnyardgrass [9, 18]: 85 | Plant response rating (scale of 0 to 100; 0 is no effect, 100 is complete control), Barnyardgrass [9]: 95 | Waterhemp plant response rating [10, 16]: 0 | Plant response rating, Waterhemp ([10]; scale 0 to 100): 0 | Plant response rating (scale of 0 to 100), Waterhemp [10]: 0 | Velvetleaf plant response rating [11, 16]: 0 | Plant response rating, Velvetleaf ([11]; scale 0 to 100): 0 | Plant response rating (scale of 0 to 100), Velvetleaf [11]: 0
